Each structure is given as a SMILES string.

Sequence of KRAS G12C and cRAF (Ras-binding domain) interaction (P01116 other isoform, or with tags, fused parts or gaps G12C/C51S/C80L/C118S): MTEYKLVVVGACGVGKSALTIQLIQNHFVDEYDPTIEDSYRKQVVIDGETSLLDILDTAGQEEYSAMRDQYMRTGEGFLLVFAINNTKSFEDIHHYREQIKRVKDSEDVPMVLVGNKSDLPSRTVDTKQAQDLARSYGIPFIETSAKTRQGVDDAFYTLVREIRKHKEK

The first experiment concerns the target KRAS G12C and cRAF (Ras-binding domain) interaction (Homo sapiens (Human), UniProt P01116, C118S/C51S/C80L/G12C). As to the kind of experiment: Inhibition of KRAS G12C and cRAF binding (AlphaScreen).
Conditions: not given
In short, it runs like this:
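IC50 values come from 4-parameter nonlinear regression of AlphaScreen signal (680 nm excitation, 570 nm emission). Compound plates sat 19-20 h at room temperature before RBD and donor/acceptor beads were added in Hepes pH 7.4 buffer with 150 mM NaCl, 5 mM MgCl2, 2% DMSO for 60-90 min; biotin-AviTag-GST replaced RBD to flag assay-technology interferers.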
With `C=CC(=O)N1CC[C@@H](N(CC(F)F)c2nc(OC[C@@]34CCCN3C[C@H](F)C4)nc3c(F)c(-c4cccc5cccc(Cl)c45)ncc23)C1` [Example 194, 1-((R)-3-((7-(8-chloronaphthalen-1-yl)-8-fluoro-2-(((2R,7aS)-2-fluorotetrahydro-1H-pyrrolizin-7a(5H)-yl)methoxy)pyrido[4,3-d]pyrimidin-4-yl)(2,2-difluoroethyl)amino)pyrrolidin-1-yl)prop-2-en-1-one], the IC50 fell in the range of 10 to 100 nM.

The experiment is the same for the next values; noted with them: GMPPNP-loaded KRAS G12C, 19-20 hours incubation with compound; read-out: IC50 (Inhibition of KRAS G12C and cRAF Binding).
Consider `CN(c1nc(OCC23CCCN2CCC3)nc2c(F)c(-c3cccc4cccc(Cl)c34)ncc12)[C@@H]1CCN(C(=O)/C=C/c2nc(C3COC3)no2)C1` [Example 155, (R,E)-1-(3-((7-(8-chloronaphthalen-1-yl)-8-fluoro-2-((tetrahydro-1H-pyrrolizin-7a(5H)-yl)methoxy)pyrido[4,3-d]pyrimidin-4-yl)(methyl)amino)pyrrolidin-1-yl)-3-(3-(oxetan-3-yl)-1,2,4-oxadiazol-5-yl)prop-2-en-1-one], for which the IC50 was below 10 nM.

As for `CN(c1nc(OCC23CCCN2CCC3)nc2c1CCN(c1cccc3cccc(Cl)c13)C2)[C@@H]1CCN(C(=O)/C=C/c2nc(C3COC3)no2)C1` [Example 156, (R,E)-1-(3-((7-(8-chloronaphthalen-1-yl)-2-((hexahydro-1H-pyrrolizin-7a-yl)methoxy)-5,6,7,8-tetrahydropyrido[3,4-d]pyrimidin-4-yl)(methyl)amino)pyrrolidin-1-yl)-3-(3-(oxetan-3-yl)-1,2,4-oxadiazol-5-yl)prop-2-en-1-one], the IC50 lay within 10 to 100 nM.

As for `CN(c1nc(OC[C@@]23CCCN2C[C@H](F)C3)nc2c(F)c(-c3cccc4cccc(Cl)c34)ncc12)[C@@H]1CCN(C(=O)/C=C/c2nc(C(F)F)no2)C1` [Example 157, (E)-1-((R)-3-((7-(8-chloronaphthalen-1-yl)-8-fluoro-2-(((2R,7aS)-2-fluorotetrahydro-1H-pyrrolizin-7a(5H)-yl)methoxy)pyrido[4,3-d]pyrimidin-4-yl)(methyl)amino)pyrrolidin-1-yl)-3-(3-(difluoromethyl)-1,2,4-oxadiazol-5-yl)prop-2-en-1-one], the IC50 is below 10 nM.

Regarding `C=CC(=O)N1CC[C@@H](N(C)c2nc(OC[C@@]34CCCN3C[C@H](F)C4)nc3c(F)c(-c4cc(O)cc5ccccc45)ncc23)C1` [Example 158, 1-((R)-3-((8-fluoro-2-(((2R,7aS)-2-fluorohexahydro-1H-pyrrolizin-7a-yl)methoxy)-7-(3-hydroxynaphthalen-1-yl)pyrido[4,3-d]pyrimidin-4-yl)(methyl)amino)pyrrolidin-1-yl)prop-2-en-1-one], the IC50 was below 10 nM.

Take `CN(c1nc(OC[C@@]23CCCN2C[C@H](F)C3)nc2c(F)c(-c3cccc4cccc(Cl)c34)ncc12)[C@@H]1CCN(C(=O)/C=C/c2nc(C3COC3)no2)C1` [Example 159, (E)-1-((R)-3-((7-(8-chloronaphthalen-1-yl)-8-fluoro-2-(((2R,7aS)-2-fluorohexahydro-1H-pyrrolizin-7a-yl)methoxy)pyrido[4,3-d]pyrimidin-4-yl)(methyl)amino)pyrrolidin-1-yl)-3-(3-(oxetan-3-yl)-1,2,4-oxadiazol-5-yl)prop-2-en-1-one]: the IC50 was below 10 nM.

As for `Cc1noc(/C=C/C(=O)N2CC[C@@H](N(C)c3nc(OC[C@@]45CCCN4C[C@H](F)C5)nc4c3CCN(c3cccc5cccc(Cl)c35)C4)C2)n1` [Example 178, (E)-1-((R)-3-((7-(8-chloronaphthalen-1-yl)-2-(((2R,7aS)-2-fluorohexahydro-1H-pyrrolizin-7a-yl)methoxy)-5,6,7,8-tetrahydropyrido[3,4-d]pyrimidin-4-yl)(methyl)amino)pyrrolidin-1-yl)-3-(3-methyl-1,2,4-oxadiazol-5-yl)prop-2-en-1-one], the IC50 was below 10 nM.

In the case of `C=CC(=O)N1C[C@@H](F)[C@H](N(C)c2nc(OCC34CCCN3CCC4)nc3c(F)c(-c4cccc5ccc(F)c(Cl)c45)ncc23)C1` [Example 184, 1-((3R,4R)-3-((7-(8-chloro-7-fluoronaphthalen-1-yl)-8-fluoro-2-((hexahydro-1H-pyrrolizin-7a-yl)methoxy)pyrido[4,3-d]pyrimidin-4-yl)(methyl)amino)-4-fluoropyrrolidin-1-yl)prop-2-en-1-one], the half-maximal inhibitory concentration (IC50) was 10 to 100 nM.

For the compound `C=CC(=O)N1CC[C@@H](N(C)c2nc(OC[C@@]34CCCN3C[C@H](F)C4)nc3c(F)c(-c4cccc5ccc(F)c(CC)c45)ncc23)C1` [Example 185, 1-((R)-3-((7-(8-ethyl-7-fluoronaphthalen-1-yl)-8-fluoro-2-(((2R,7aS)-2-fluorotetrahydro-1H-pyrrolizin-7a(5H)-yl)methoxy)pyrido[4,3-d]pyrimidin-4-yl)(methyl)amino)pyrrolidin-1-yl)prop-2-en-1-one], the IC50 fell in the range of 100 to 500 nM.

Consider `CN1CCC1C#CC(=O)N1CC[C@@H](N(C)c2nc(OC[C@@]34CCCN3C[C@H](F)C4)nc3c(F)c(-c4cccc5cccc(Cl)c45)ncc23)C1` (stereo partly drawn) [Example 186, 1-((R)-3-((7-(8-chloronaphthalen-1-yl)-8-fluoro-2-(((2R,7aS)-2-fluorohexahydro-1H-pyrrolizin-7a-yl)methoxy)pyrido[4,3-d]pyrimidin-4-yl)(methyl)amino)pyrrolidin-1-yl)-3-(1-methylazetidin-2-yl)prop-2-yn-1-one], for which the IC50 is below 10 nM.

As for `C#Cc1c(F)ccc2cccc(-c3ncc4c(N(C)[C@@H]5CCN(C(=O)C=C)C5)nc(OC[C@@]56CCCN5C[C@H](F)C6)nc4c3F)c12` [Example 187, 1-((R)-3-((7-(8-ethynyl-7-fluoronaphthalen-1-yl)-8-fluoro-2-(((2R,7aS)-2-fluorohexahydro-1H-pyrrolizin-7a-yl)methoxy)pyrido[4,3-d]pyrimidin-4-yl)(methyl)amino)pyrrolidin-1-yl)prop-2-en-1-one], the IC50 was below 10 nM.

Take `CN1CCOCC1C#CC(=O)N1CC[C@@H](N(C)c2nc(OC[C@@]34CCCN3C[C@H](F)C4)nc3c(F)c(-c4cccc5cccc(Cl)c45)ncc23)C1` (stereo partly drawn) [Example 188, 1-((R)-3-((7-(8-chloronaphthalen-1-yl)-8-fluoro-2-(((2R,7aS)-2-fluorohexahydro-1H-pyrrolizin-7a-yl)methoxy)pyrido[4,3-d]pyrimidin-4-yl)(methyl)amino)pyrrolidin-1-yl)-3-(4-methylmorpholin-3-yl)prop-2-yn-1-one]: the IC50 was in the range of 100 to 500 nM.

Take `C=CC(=O)N1C[C@H](C)[C@@H](N(C)c2nc(OC[C@@]34CCCN3C[C@H](F)C4)nc3c(F)c(-c4cccc5cccc(Cl)c45)ncc23)C1` [Example 189, 1-((3R,4S)-3-((7-(8-chloronaphthalen-1-yl)-8-fluoro-2-(((2R,7aS)-2-fluorotetrahydro-1H-pyrrolizin-7a(5H)-yl)methoxy)pyrido[4,3-d]pyrimidin-4-yl)(methyl)amino)-4-methylpyrrolidin-1-yl)prop-2-en-1-one]: the IC50 was in the range of 100 to 500 nM.

Take `C=CC(=O)N1CC[C@@H](Nc2nc(OC[C@@]34CCCN3C[C@H](F)C4)nc3c(F)c(-c4cccc5cccc(Cl)c45)ncc23)[C@H]1C` [Example 190, 1-((2R,3R)-3-((7-(8-chloronaphthalen-1-yl)-8-fluoro-2-(((2R,7aS)-2-fluorotetrahydro-1H-pyrrolizin-7a(5H)-yl)methoxy)pyrido[4,3-d]pyrimidin-4-yl)amino)-2-methylpyrrolidin-1-yl)prop-2-en-1-one]: the IC50 lay within 100 to 500 nM.

As to `C=CC(=O)N1CC[C@@H](N(C)c2nc(OC[C@@]34CCCN3C[C@H](F)C4)nc3c(F)c(-c4cccc5ccc(F)c(F)c45)ncc23)C1` [Example 192, 1-((R)-3-((7-(7,8-difluoronaphthalen-1-yl)-8-fluoro-2-(((2R,7aS)-2-fluorotetrahydro-1H-pyrrolizin-7a(5H)-yl)methoxy)pyrido[4,3-d]pyrimidin-4-yl)(methyl)amino)pyrrolidin-1-yl)prop-2-en-1-one], the IC50 lay in the range of 10 to 100 nM.

`CN(c1nc(OC[C@@]23CCCN2C[C@H](F)C3)nc2c(F)c(-c3cccc4cccc(Cl)c34)ncc12)[C@@H]1CCN(C(=O)C#C[C@]2(C)CCCN2C)C1` [Example 193, 1-((R)-3-((7-(8-chloronaphthalen-1-yl)-8-fluoro-2-(((2R,7aS)-2-fluorohexahydro-1H-pyrrolizin-7a-yl)methoxy)pyrido[4,3-d]pyrimidin-4-yl)(methyl)amino)pyrrolidin-1-yl)-3-((S)-1,2-dimethylpyrrolidin-2-yl)prop-2-yn-1-one]: the IC50 is 10 to 100 nM.

Take `C=CC(=O)N1CC[C@@H](N(C)c2nc(OC[C@@]34CCCN3C[C@H](F)C4)nc3c(F)c(-c4cccc5ccc(F)c(C)c45)ncc23)C1` [Example 195, 1-((R)-3-((8-fluoro-7-(7-fluoro-8-methylnaphthalen-1-yl)-2-(((2R,7aS)-2-fluorotetrahydro-1H-pyrrolizin-7a(5H)-yl)methoxy)pyrido[4,3-d]pyrimidin-4-yl)(methyl)amino)pyrrolidin-1-yl)prop-2-en-1-one]: the IC50 lay within 10 to 100 nM.

Turning to `CCc1c(F)ccc2cccc(-c3ncc4c(N(C)[C@@H]5CCN(C(=O)/C=C/[C@H]6CCN6C)C5)nc(OC[C@@]56CCCN5C[C@H](F)C6)nc4c3F)c12` [Example 196, (E)-1-((R)-3-((7-(8-ethyl-7-fluoronaphthalen-1-yl)-8-fluoro-2-(((2R,7aS)-2-fluorotetrahydro-1H-pyrrolizin-7a(5H)-yl)methoxy)pyrido[4,3-d]pyrimidin-4-yl)(methyl)amino)pyrrolidin-1-yl)-3-((R)-1-methylazetidin-2-yl)prop-2-en-1-one], the IC50 was 10 to 100 nM.

For the compound `CN(c1nc(OC[C@@]23CCCN2C[C@H](F)C3)nc2c(F)c(-c3cccc4cccc(Cl)c34)ncc12)[C@@H]1CCN(C(=O)C#C[C@@]2(C)CCCN2C)C1` [Example 197, 1-((R)-3-((7-(8-chloronaphthalen-1-yl)-8-fluoro-2-(((2R,7aS)-2-fluorohexahydro-1H-pyrrolizin-7a-yl)methoxy)pyrido[4,3-d]pyrimidin-4-yl)(methyl)amino)pyrrolidin-1-yl)-3-((R)-1,2-dimethylpyrrolidin-2-yl)prop-2-yn-1-one], the IC50 was 10 to 100 nM.

For the origin of these results see patent US20250019387A1 (Frontier Medicines Corporation, priority 0001, published 2025).
